What was measured:
[1] = target: T1, Alpha-1B adrenergic receptor (Rattus norvegicus, UniProt P15823); test: DRUGMATRIX: Alpha-1B adrenergic receptor radioligand binding (ligand: prazosin); assay type: cell membranes, Wistar, Liver, Membrane; conditions: Not Active = under 50% inhibition at 10 µM; for Ki: read-out: Ki
T1 sequence (P15823 whole entry): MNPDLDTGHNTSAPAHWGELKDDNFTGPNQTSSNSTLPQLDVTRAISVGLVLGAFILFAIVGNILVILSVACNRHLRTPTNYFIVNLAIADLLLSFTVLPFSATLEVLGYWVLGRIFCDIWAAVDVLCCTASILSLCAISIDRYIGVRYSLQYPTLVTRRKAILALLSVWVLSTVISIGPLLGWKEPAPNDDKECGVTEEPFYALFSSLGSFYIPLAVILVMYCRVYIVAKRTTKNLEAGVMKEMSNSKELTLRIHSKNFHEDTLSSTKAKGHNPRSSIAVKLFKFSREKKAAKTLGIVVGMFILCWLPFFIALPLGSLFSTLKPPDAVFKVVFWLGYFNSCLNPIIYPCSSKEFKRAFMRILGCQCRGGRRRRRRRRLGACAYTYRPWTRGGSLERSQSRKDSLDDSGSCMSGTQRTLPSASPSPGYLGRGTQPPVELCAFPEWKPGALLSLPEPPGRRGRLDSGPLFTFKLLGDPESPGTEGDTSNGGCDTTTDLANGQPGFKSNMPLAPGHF

[2] = target: Sodium-dependent noradrenaline transporter (Homo sapiens, UniProt P23975); test: DRUGMATRIX: Norepinephrine Transporter radioligand binding (ligand: [125I] RTI-55); assay type: cell membranes, MDCK, Membrane; conditions: Not Active = under 50% inhibition at 10 µM
Sodium-dependent noradrenaline transporter, sequence (P23975 whole entry): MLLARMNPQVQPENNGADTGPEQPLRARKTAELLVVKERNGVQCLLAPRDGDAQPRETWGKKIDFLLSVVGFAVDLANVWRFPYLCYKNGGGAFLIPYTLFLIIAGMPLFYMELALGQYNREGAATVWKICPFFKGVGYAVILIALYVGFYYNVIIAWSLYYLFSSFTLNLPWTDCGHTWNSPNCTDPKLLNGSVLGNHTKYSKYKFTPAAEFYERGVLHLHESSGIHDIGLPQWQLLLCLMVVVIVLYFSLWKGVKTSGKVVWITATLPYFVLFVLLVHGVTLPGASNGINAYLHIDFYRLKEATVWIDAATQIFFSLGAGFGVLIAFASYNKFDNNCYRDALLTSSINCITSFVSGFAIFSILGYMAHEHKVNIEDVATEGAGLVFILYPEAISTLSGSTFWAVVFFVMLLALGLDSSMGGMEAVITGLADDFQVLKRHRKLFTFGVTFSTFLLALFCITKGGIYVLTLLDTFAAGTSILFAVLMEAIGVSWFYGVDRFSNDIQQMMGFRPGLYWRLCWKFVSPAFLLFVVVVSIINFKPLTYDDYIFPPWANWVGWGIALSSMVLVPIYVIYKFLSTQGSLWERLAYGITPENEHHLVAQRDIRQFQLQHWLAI

[3] = DRUGMATRIX: Glutamate, NMDA, Agonism radioligand binding (ligand: [3H] CGP-39653); assay type: cell membranes, Rattus norvegicus, Wistar, Cerebral cortex, Membrane; conditions: Not Active = under 50% inhibition at 10 µM
[4] = DRUGMATRIX: Phorbol Ester radioligand binding (ligand: [3H] PDBu); assay type: cell membranes, Mus musculus, ICR, Brain, Membrane; conditions: Not Active = under 50% inhibition at 10 µM
Progesterone receptor = target: T2, Progesterone receptor (Bos taurus, UniProt Q690N0); test: DRUGMATRIX: Progesterone radioligand binding (ligand: [3H] R-5020); assay type: tissue-based, Uterus; conditions: Not Active = under 50% inhibition at 10 µM; for Ki: read-out: Ki
T2 sequence (Q690N0 whole entry): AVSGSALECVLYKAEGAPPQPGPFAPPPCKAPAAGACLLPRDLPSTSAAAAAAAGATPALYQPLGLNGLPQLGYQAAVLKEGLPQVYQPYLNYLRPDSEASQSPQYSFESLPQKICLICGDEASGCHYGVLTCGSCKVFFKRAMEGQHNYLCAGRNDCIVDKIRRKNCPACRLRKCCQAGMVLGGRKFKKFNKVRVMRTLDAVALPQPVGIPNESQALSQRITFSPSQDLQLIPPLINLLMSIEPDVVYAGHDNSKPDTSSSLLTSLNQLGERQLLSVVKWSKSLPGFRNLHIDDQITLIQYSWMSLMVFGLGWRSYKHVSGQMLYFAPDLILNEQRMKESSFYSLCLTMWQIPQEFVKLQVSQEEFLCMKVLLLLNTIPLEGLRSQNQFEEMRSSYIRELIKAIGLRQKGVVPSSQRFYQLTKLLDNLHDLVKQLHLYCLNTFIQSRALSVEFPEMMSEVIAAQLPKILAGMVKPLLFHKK

[5] = target: Tyrosine-protein kinase Fyn (Homo sapiens, UniProt P06241); test: biochemical; assay type: cell-based, Insect cells;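 further: enzymatic inhibition of Fyn kinase activity measured with Poly(Glu:Tyr) as the phosphorylation substrate; in other assays of this panel Not Active means under 50% inhibition at 10 µM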
Tyrosine-protein kinase Fyn, sequence (P06241 whole entry): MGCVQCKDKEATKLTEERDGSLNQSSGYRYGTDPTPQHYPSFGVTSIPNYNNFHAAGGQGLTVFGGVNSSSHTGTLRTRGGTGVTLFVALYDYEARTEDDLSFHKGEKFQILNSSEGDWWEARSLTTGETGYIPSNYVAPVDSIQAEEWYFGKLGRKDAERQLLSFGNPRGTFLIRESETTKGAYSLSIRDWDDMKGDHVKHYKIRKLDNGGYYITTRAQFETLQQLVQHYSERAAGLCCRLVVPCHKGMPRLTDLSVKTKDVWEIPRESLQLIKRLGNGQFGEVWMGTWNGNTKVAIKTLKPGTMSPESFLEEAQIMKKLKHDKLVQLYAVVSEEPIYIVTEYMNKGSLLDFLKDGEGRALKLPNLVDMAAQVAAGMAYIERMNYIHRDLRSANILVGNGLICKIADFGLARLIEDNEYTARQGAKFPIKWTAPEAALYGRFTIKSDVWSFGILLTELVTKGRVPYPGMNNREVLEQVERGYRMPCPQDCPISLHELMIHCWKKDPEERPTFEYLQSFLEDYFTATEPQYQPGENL

Compound	IC50 [1]	IC50 ([2]; mdck)	IC50 [3]	Ki [3]	IC50 [4]	Ki [4]	IC50 (Progesterone receptor)	IC50 ([5]; insect cells)	IC50 (Progesterone receptor; read-out: IC50) [µM]	Ki (Progesterone receptor) [µM]	IC50 ([1]; read-out: IC50) [µM]	Ki [1] [µM]	IC50 ([2]; read-out: IC50) [µM]	Ki ([2]; read-out: Ki) [µM]	IC50 ([5]; read-out: IC50) [µM]
O=C1CN=C(c2ccccc2Cl)c2cc([N+](=O)[O-])ccc2N1 [CLONAZEPAM]	Not Active	Not Active	Not Active	Not Active	Not Active	Not Active	Not Active	Not Active							
Nc1ccn([C@@H]2O[C@H](CO)[C@@H](O)[C@@H]2O)c(=O)n1 [CYTARABINE]	Not Active	Not Active	Not Active	Not Active	Not Active	Not Active	Not Active	Not Active							
C[C@@H]1C[C@H]2[C@@H]3CCC4=CC(=O)C=C[C@]4(C)[C@@]3(F)[C@@H](O)C[C@]2(C)[C@H]1C(=O)CO [DESOXIMETASONE]	Not Active	Not Active	Not Active	Not Active	Not Active	Not Active		Not Active	0.084	0.011					
C[C@@H]1C[C@H]2[C@@H]3CCC4=CC(=O)C=C[C@]4(C)[C@@]3(F)[C@@H](O)C[C@]2(C)[C@@]1(O)C(=O)CO [DEXAMETHASONE]	Not Active	Not Active	Not Active	Not Active	Not Active	Not Active		Not Active	23.3	3.04					
CN(C)CC[C@@H](c1ccc(Cl)cc1)c1ccccn1 [DEXCHLORPHENIRAMINE]			Not Active	Not Active	Not Active	Not Active	Not Active	Not Active			15.6	8.61	4.97	4.92	
C[C@@H]1CC[C@@]2(OC1)O[C@H]1[C@@H](O)[C@H]3[C@@H]4CC[C@H]5C[C@@H](O[C@@H]6O[C@H](CO)[C@H](O[C@@H]7O[C@H](CO)C(O)[C@H](O[C@@H]8OC[C@@H](O)[C@H](O)[C@H]8O)[C@H]7O[C@@H]7O[C@H](CO)[C@H](O)[C@H](O[C@@H]8O[C@H](CO)[C@@H](O)[C@H](O)[C@H]8O)[C@H]7O)[C@H](O)[C@H]6O)[C@H](O)C[C@]5(C)[C@H]4CC[C@]3(C)[C@H]1[C@@H]2C (stereo partly drawn) [DIGITONIN]	Not Active	Not Active	Not Active	Not Active	Not Active	Not Active	Not Active	Not Active							
OC(CCCN1CCCCC1)(c1ccccc1)c1ccccc1 [DIPHENIDOL]		Not Active	Not Active	Not Active	Not Active	Not Active	Not Active	Not Active			4.76	2.64			
C[C@H]1O[C@@H](n2cc(F)c(=O)[nH]c2=O)[C@H](O)[C@@H]1O [DOXIFLURIDINE]	Not Active	Not Active	Not Active	Not Active	Not Active	Not Active	Not Active	Not Active							
Cn1c(=O)c2c(ncn2CC(O)CO)n(C)c1=O (stereo not drawn) [DYPHYLLINE]	Not Active	Not Active	Not Active	Not Active	Not Active	Not Active	Not Active	Not Active							
CC[C@H]1CN2CCc3cc(OC)c(OC)cc3[C@@H]2C[C@@H]1C[C@H]1NCCc2cc(OC)c(OC)cc21 [EMETINE]		Not Active	Not Active	Not Active	Not Active	Not Active	Not Active	Not Active			1.93	1.07			
C[C@@H](CO)NC(=O)[C@@H]1C=C2c3cccc4[nH]cc(c34)C[C@H]2N(C)C1 [ERGONOVINE]	Not Active	Not Active	Not Active	Not Active	Not Active	Not Active	Not Active	Not Active							
COC(=O)CCc1ccc(OCC(O)CNC(C)C)cc1 (stereo not drawn) [ESMOLOL]	Not Active	Not Active	Not Active	Not Active	Not Active	Not Active	Not Active	Not Active							
CCC1(C)CC(=O)NC1=O (stereo not drawn) [ETHOSUXIMIDE]	Not Active	Not Active	Not Active	Not Active	Not Active	Not Active	Not Active	Not Active							
C#C[C@]1(OC(C)=O)CC[C@H]2[C@@H]3CCC4=C[C@@H](OC(C)=O)CC[C@@H]4[C@H]3CC[C@@]21C [ETHYNODIOL DIACETATE]	Not Active	Not Active	Not Active	Not Active	Not Active	Not Active		Not Active	0.16	0.021					
COc1cc([C@@H]2c3cc4c(cc3[C@@H](O[C@@H]3O[C@@H]5CO[C@@H](C)O[C@H]5[C@H](O)[C@H]3O)[C@H]3COC(=O)[C@H]23)OCO4)cc(OC)c1O [ETOPOSIDE]	Not Active	Not Active	Not Active	Not Active	Not Active	Not Active	Not Active	Not Active							
C=CCc1ccc(O)c(OC)c1 [EUGENOL]	Not Active	Not Active	Not Active	Not Active	Not Active	Not Active	Not Active	Not Active							
CC(C(=O)O)c1cccc(Oc2ccccc2)c1 (stereo not drawn) [FENOPROFEN]	Not Active	Not Active	Not Active	Not Active	Not Active	Not Active	Not Active	Not Active							
CC(C)(C)NC(=O)[C@H]1CC[C@H]2[C@@H]3CC[C@H]4NC(=O)C=C[C@]4(C)[C@H]3CC[C@]12C [FINASTERIDE]	Not Active	Not Active	Not Active	Not Active	Not Active	Not Active	Not Active	Not Active							
COc1ccc2c3c1O[C@H]1C[C@@H](O)C=C[C@@]31CCN(C)C2 [GALANTAMINE]	Not Active	Not Active	Not Active	Not Active	Not Active	Not Active	Not Active	Not Active							
Nc1ccn([C@@H]2O[C@H](CO)[C@@H](O)C2(F)F)c(=O)n1 [GEMCITABINE]	Not Active	Not Active	Not Active	Not Active	Not Active	Not Active	Not Active	Not Active							
CC(C)=CCC/C(C)=C/CO [GERANIOL]	Not Active	Not Active	Not Active	Not Active	Not Active	Not Active	Not Active	Not Active							
N=C(N)NC(=O)Cc1c(Cl)cccc1Cl [GUANFACINE]	Not Active	Not Active	Not Active	Not Active	Not Active	Not Active	Not Active	Not Active							
Oc1c(Cl)cc(Cl)c(Cl)c1Cc1c(O)c(Cl)cc(Cl)c1Cl [HEXACHLOROPHENE]	Not Active	Not Active	Not Active	Not Active	Not Active	Not Active	Not Active								3.48
NNc1nncc2ccccc12 [HYDRALAZINE]	Not Active	Not Active	Not Active	Not Active	Not Active	Not Active	Not Active	Not Active							
CC(=O)[C@@]1(O)CC[C@H]2[C@@H]3CCC4=CC(=O)CC[C@]4(C)[C@H]3CC[C@@]21C [HYDROXYPROGESTERONE]	Not Active	Not Active	Not Active	Not Active	Not Active	Not Active		Not Active	0.012	0.00155					

From ChEMBL document CHEMBL1909046, “DrugMatrix in vitro pharmacology data”
